Laboratory results published in patent US20080207683A1, “BIARYL-S[…]-PYRAZOLO-PYRIDINE MODULATORS OF CATHEPSIN S” (priority 2007, published 2008).

The compounds below were run against T1, Human CatS (Homo sapiens, UniProt P25774) (assay: CatS inhibition of hydrolysis of fluorescent substrate Z-Val-Val-Arg-AFC). Conditions: not given.
T1 construct: made in house; host or cells: Sf9 insect cells (baculovirus vector pFB+HT)
Type: biochemical
Experimental: Human CatS was cloned into pFB+HT (from Stratagene clone), expressed in Sf9 cells, and purified over a Ni column. Fractions were concentrated and activated at pH 4.0 for 6 hr and then purified over a thiopropylsepharose column and eluted with 1×TBS, 500 mM NaCl, 1 mM EDTA, 25 mM DTT pH 7.6. Glycerol (50%) was added in a 1:1 (vol/vol) ratio (25% glycerol final) and protein was stored at −80° C. in 5 μL aliquots. […] The increase in fluorescence over time was monitored using λexcitation=400 nm and λemission=505 nm.
In equation 1, v is the initial rate measured in the presence of [I]0, the inhibitor concentration, using an enzyme concentration [E]0. v0 is the initial rate measured in the absence of inhibitor.

T1 sequence (P25774 115-331): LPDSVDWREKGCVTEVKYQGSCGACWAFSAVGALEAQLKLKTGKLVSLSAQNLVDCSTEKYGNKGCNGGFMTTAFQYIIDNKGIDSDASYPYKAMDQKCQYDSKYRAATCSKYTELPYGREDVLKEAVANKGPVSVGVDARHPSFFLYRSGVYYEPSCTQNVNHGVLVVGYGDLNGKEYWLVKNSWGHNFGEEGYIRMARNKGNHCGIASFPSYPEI

Compound | Ki [nM]
CS(=O)(=O)N1CCc2c(c(-c3ccc(Cl)c(-c4cccc(C(=O)NCc5cc6ccccc6[nH]5)c4)c3)nn2CCCN2CCCC2)C1 [Example 13, 2′-Chloro-5′-[5-methanesulfonyl-1-(3-pyrrolidin-1-yl-propyl)-4,5,6,7-tetrahydro-1H-pyrazolo[4,3-c]pyridin-3-yl]-biphenyl-3-carboxylic acid (1H-indol-2-ylmethyl)-amide] | 330

Same assay, conditions: apparent Ki, Morrison equation fit of initial rates; 10 μM Z-Val-Val-Arg-AFC, pH 5.0, 1.5 nM CatS; read-out: CatS Ki^app

Compound | Ki [nM]
COc1ccc(NCCNC(=O)c2cccc(-c3cc(-c4nn(CCCN5CCC(N6CCCC6=O)CC5)c5c4CN(S(C)(=O)=O)CC5)ccc3Cl)c2)cc1 [Example 31, 2′-Chloro-5′-(5-methanesulfonyl-1-{3-[4-(2-oxo-pyrrolidin-1-yl)-piperidin-1-yl]-propyl}-4,5,6,7-tetrahydro-1H-pyrazolo[4,3-c]pyridin-3-yl)-biphenyl-3-carboxylic acid [2-(4-methoxy-phenylamino)-ethyl]-amide] | 27.3
CC(=O)N1CCc2c(c(-c3ccc(Cl)c(-c4cccc(C(=O)N[C@@H](C)CN5CCc6cc(F)ccc65)c4)c3)nn2CCCN2CCCC2)C1 [Example 36, (S)-5′-[5-Acetyl-1-(3-pyrrolidin-1-yl-propyl)-4,5,6,7-tetrahydro-1H-pyrazolo[4,3-c]pyridin-3-yl]-2′-chloro-biphenyl-3-carboxylic acid [2-(5-fluoro-2,3-dihydro-indol-1-yl)-1-methyl-ethyl]-amide] | 736
CS(=O)(=O)N1CCc2c(c(-c3ccc(Cl)c(-c4cccc(C(=O)NCCNc5cccc6c5CCC6)c4)c3)nn2CCCN2CCCC2)C1 [Example 3, 2′-Chloro-5′-[5-methanesulfonyl-1-(3-pyrrolidin-1-yl-propyl)-4,5,6,7-tetrahydro-1H-pyrazolo[4,3-c]pyridin-3-yl]-biphenyl-3-carboxylic acid [2-(indan-4-ylamino)-ethyl]-amide] | 335
CCC(NC(=O)c1cccc(-c2cc(-c3nn(CCCN4CCCC4)c4c3CN(S(C)(=O)=O)CC4)ccc2Cl)c1)c1nc2cc(C)ccc2[nH]1 (stereo not drawn) [Example 17, 2′-Chloro-5′-[5-methanesulfonyl-1-(3-pyrrolidin-1-yl-propyl)-4,5,6,7-tetrahydro-1H-pyrazolo[4,3-c]pyridin-3-yl]-biphenyl-3-carboxylic acid [1-(5-methyl-1H-benzoimidazol-2-yl)-propyl]-amide] | 125
COc1ccc(NCCNC(=O)c2cccc(-c3cc(-c4nn(CCCN5CCCC5)c5c4CN(S(C)(=O)=O)CC5)ccc3Cl)c2)cn1 [Example 6, 2′-Chloro-5′-[5-methanesulfonyl-1-(3-pyrrolidin-1-yl-propyl)-4,5,6,7-tetrahydro-1H-pyrazolo[4,3-c]pyridin-3-yl]-biphenyl-3-carboxylic acid [2-(6-methoxy-pyridin-3-ylamino)-ethyl]-amide] | 317
CC(C)c1ccc(NCCNC(=O)c2cccc(-c3cc(-c4nn(CCCN5CCC(O)C5)c5c4CNCC5)ccc3Cl)c2)cc1 (stereo not drawn) [Example 43, 2′-Chloro-5′-{1-[3-(3-hydroxy-pyrrolidin-1-yl)-propyl]-4,5,6,7-tetrahydro-1H-pyrazolo[4,3-c]pyridin-3-yl}-biphenyl-3-carboxylic acid [2-(4-isopropyl-phenylamino)-ethyl]-amide] | 48.5
CS(=O)(=O)N1CCc2c(c(-c3ccc(Cl)c(-c4cccc(C(=O)NCc5nccs5)c4)c3)nn2CCCN2CCCC2)C1 [Example 19, 2′-Chloro-5′-[5-methanesulfonyl-1-(3-pyrrolidin-1-yl-propyl)-4,5,6,7-tetrahydro-1H-pyrazolo[4,3-c]pyridin-3-yl]-biphenyl-3-carboxylic acid (thiazol-2-ylmethyl)-amide] | 269
COc1ccc(NC(=O)CNC(=O)c2cccc(-c3cc(-c4nn(CCCN5CCCC5)c5c4CN(S(C)(=O)=O)CC5)ccc3Cl)c2)cc1 [Example 26, 2′-Chloro-5′-[5-methanesulfonyl-1-(3-pyrrolidin-1-yl-propyl)-4,5,6,7-tetrahydro-1H-pyrazolo[4,3-c]pyridin-3-yl]-biphenyl-3-carboxylic acid [(4-methoxy-phenylcarbamoyl)-methyl]-amide] | 712
CS(=O)(=O)N1CCc2c(c(-c3ccc(Cl)c(-c4cccc(C(=O)NCc5nc6cc(F)ccc6s5)c4)c3)nn2CCCN2CCCC2)C1 [Example 25, 2′-Chloro-5′-[5-methanesulfonyl-1-(3-pyrrolidin-1-yl-propyl)-4,5,6,7-tetrahydro-1H-pyrazolo[4,3-c]pyridin-3-yl]-biphenyl-3-carboxylic acid (5-fluoro-benzothiazol-2-ylmethyl)-amide] | 117
COc1ccc(CNC(=O)c2cccc(-c3cc(-c4nn(CCCN5CCCC5)c5c4CN(C(C)=O)CC5)ccc3Cl)c2)cc1 [Example 41, 5′-[5-Acetyl-1-(3-pyrrolidin-1-yl-propyl)-4,5,6,7-tetrahydro-1H-pyrazolo[4,3-c]pyridin-3-yl]-2′-chloro-biphenyl-3-carboxylic acid 4-methoxy-benzylamide] | 430
O=C(NCCNc1ccc(OCC2CCCC2)cc1)c1cccc(-c2cc(-c3nn(CCCN4CCC(O)C4)c4c3CNCC4)ccc2Cl)c1 (stereo not drawn) [Example 47, 2′-Chloro-5′-{1-[3-(3-hydroxy-pyrrolidin-1-yl)-propyl]-4,5,6,7-tetrahydro-1H-pyrazolo[4,3-c]pyridin-3-yl}-biphenyl-3-carboxylic acid [2-(4-cyclopentylmethoxy-phenylamino)-ethyl]-amide] | 53.7
C[C@@H](CN1CCc2cc(F)ccc21)NC(=O)c1cccc(-c2cc(-c3nn(CCCN4CCCC4)c4c3CN(S(C)(=O)=O)CC4)ccc2Cl)c1 [Example 9, (S)-2′-Chloro-5′-[5-methanesulfonyl-1-(3-pyrrolidin-1-yl-propyl)-4,5,6,7-tetrahydro-1H-pyrazolo[4,3-c]pyridin-3-yl]-biphenyl-3-carboxylic acid [2-(5-fluoro-2,3-dihydro-indol-1-yl)-1-methyl-ethyl]-amide] | 138
CS(=O)(=O)N1CCc2c(c(-c3ccc(Cl)c(-c4cccc(C(=O)NCc5ncco5)c4)c3)nn2CCCN2CCC(O)C2)C1 (stereo not drawn) [Example 29, 2′-Chloro-5′-{1-[3-(3-hydroxy-pyrrolidin-1-yl)-propyl]-5-methanesulfonyl-4,5,6,7-tetrahydro-1H-pyrazolo[4,3-c]pyridin-3-yl}-biphenyl-3-carboxylic acid (oxazol-2-ylmethyl)-amide] | 477
CS(=O)(=O)N1CCc2c(c(-c3ccc(Cl)c(-c4cccc(C(=O)NCc5nc(-c6ccccc6)cs5)c4)c3)nn2CCCN2CCCC2)C1 [Example 23, 2′-Chloro-5′-[5-methanesulfonyl-1-(3-pyrrolidin-1-yl-propyl)-4,5,6,7-tetrahydro-1H-pyrazolo[4,3-c]pyridin-3-yl]-biphenyl-3-carboxylic acid (4-phenyl-thiazol-2-ylmethyl)-amide] | 88.9
CC(=O)N1CCc2c(c(-c3ccc(Cl)c(-c4cccc(C(=O)NC(C)c5nc6cc(C)ccc6[nH]5)c4)c3)nn2CCCN2CCCC2)C1 (stereo not drawn) [Example 39, 5′-[5-Acetyl-1-(3-pyrrolidin-1-yl-propyl)-4,5,6,7-tetrahydro-1H-pyrazolo[4,3-c]pyridin-3-yl]-2′-chloro-biphenyl-3-carboxylic acid [1-(5-methyl-1H-benzoimidazol-2-yl)-ethyl]-amide] | 37
CS(=O)(=O)N1CCc2c(c(-c3ccc(Cl)c(-c4cccc(C(=O)NCCNc5ccc(OCC6CCCC6)cc5)c4)c3)nn2CCCN2CCCC2)C1 [Example 5, 2′-Chloro-5′-[5-methanesulfonyl-1-(3-pyrrolidin-1-yl-propyl)-4,5,6,7-tetrahydro-1H-pyrazolo[4,3-c]pyridin-3-yl]-biphenyl-3-carboxylic acid [2-(4-cyclopentylmethoxy-phenylamino)-ethyl]-amide] | 60.2
COc1ccc(NCCNC(=O)c2cccc(-c3cc(-c4nn(CCCN5CCC(O)C5)c5c4CNCC5)ccc3Cl)c2)cc1 (stereo not drawn) [Example 44, 2′-Chloro-5′-{1-[3-(3-hydroxy-pyrrolidin-1-yl)-propyl]-4,5,6,7-tetrahydro-1H-pyrazolo[4,3-c]pyridin-3-yl}-biphenyl-3-carboxylic acid [2-(4-methoxy-phenylamino)-ethyl]-amide] | 30.4
Cc1ccc(NCCNC(=O)c2cccc(-c3cc(-c4nn(CCCN5CCCC5)c5c4CN(S(C)(=O)=O)CC5)ccc3Cl)c2)cc1 [Example 2, 2′-Chloro-5′-[5-methanesulfonyl-1-(3-pyrrolidin-1-yl-propyl)-4,5,6,7-tetrahydro-1H-pyrazolo[4,3-c]pyridin-3-yl]-biphenyl-3-carboxylic acid (2-p-tolylamino-ethyl)-amide] | 345
COc1ccc(NCCNC(=O)c2cccc(-c3cc(-c4nn(CCCN5CCCC5)c5c4CN(S(C)(=O)=O)CC5)ccc3Cl)c2)cc1 [Example 1, 2′-Chloro-5′-[5-methanesulfonyl-1-(3-pyrrolidin-1-yl-propyl)-4,5,6,7-tetrahydro-1H-pyrazolo[4,3-c]pyridin-3-yl]-biphenyl-3-carboxylic acid [2-(4-methoxy-phenylamino)-ethyl]-amide] | 85
CS(=O)(=O)N1CCc2c(c(-c3ccc(Cl)c(-c4cccc(C(=O)NCCN5CCc6cc(F)ccc65)c4)c3)nn2CCCN2CCCC2)C1 [Example 8, 2′-Chloro-5′-[5-methanesulfonyl-1-(3-pyrrolidin-1-yl-propyl)-4,5,6,7-tetrahydro-1H-pyrazolo[4,3-c]pyridin-3-yl]-biphenyl-3-carboxylic acid [2-(5-fluoro-2,3-dihydro-indol-1-yl)-ethyl]-amide] | 237
